{"source": "paper PMC8375220", "about": "(Peptides, 2021)", "key": {"[1]": {"system": "SARS-CoV-2 spike pseudovirions"}, "SARS-CoV-2 spike RBD": {"molecular_target": "SARS-CoV-2 spike RBD (Severe acute respiratory syndrome coronavirus 2, UniProt P0DTC2)", "experiment": "biochemical", "format": "binding"}, "[2]": {"system": "Human umbilical vein endothelial cells (HUVECs)", "experiment": "HUVEC viability", "format": "cell-based"}, "BALB/c mice": {"system": "BALB/c mice", "experiment": "In vivo toxicity after intranasal administration", "parameters": "species or system mouse", "details": "2.5 mg/kg single intranasal dose"}, "[3]": {"system": "SARS-CoV-2 spike pseudovirion", "details": "cited from earlier work"}}, "note": "Read-outs that look alike come from different tables or passages of the source. Where no end group is shown, it is not given here."}
{"substance": "GKGDFRI [GK-7, GKGDFRI]", "values": [{"measurement": "IC50, inhibition of SARS-CoV-2 spike pseudovirion infection", "setting": "[1]; spike pseudovirions, 12 h", "value": 2.96, "unit": "µg/mL"}, {"measurement": "Kd", "setting": "SARS-CoV-2 spike RBD", "value": 25.1, "unit": "nM"}, {"measurement": "HUVEC survival", "setting": "[2]; 24 h, doses up to 200 μg/mL, CCK-8", "value": "did not affect cell survival"}, {"measurement": "fold of highest non-cytotoxic dose (200 μg/mL) over pseudovirion IC50", "setting": "[2]; HUVECs 24 h versus IC50 2.96 μg/mL", "value": "approximately 68 fold"}, {"measurement": "effect on ALT, AST, blood urea and creatinine contents", "setting": "BALB/c mice", "value": "minor effects"}, {"measurement": "HE staining of major organs", "setting": "BALB/c mice; day 7", "value": "no pathological changes"}, {"measurement": "effect on RBC, WBC and platelet counts in the blood", "setting": "BALB/c mice; day 7", "value": "minor effects"}, {"measurement": "effect on organ index (heart, liver, spleen, lungs, kidneys)", "setting": "BALB/c mice; day 7", "value": "minor effects"}]}
{"substance": "LL37", "values": [{"measurement": "IC50, SARS-CoV-2 spike pseudovirion infection", "setting": "[3]", "value": 4.74, "unit": "µg/mL"}]}
{"substance": "ACE2", "values": [{"measurement": "IC50, inhibition of SARS-CoV-2 spike pseudovirion infection", "setting": "[1]", "value": 0.067, "unit": "µg/mL"}]}
